According to US8969516B2, “Method of hydrolysis of peptide bond” (priority 2006, dated 2015):

Test: MALDI-TOF screening of Ni^2+ dependent hydrolysis in a combinatorial peptide library
Type: physicochemical
Settings: Ni^2+ 2 mM, pH 8.2, 10 mM Tris, score=24/tm
Procedure, shortened: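 Sublibraries of Ac-Gly-Ala-Ser/Thr-X-His-Z-Lys-Phe-Leu-NH2, randomized at Z and fixed at X, were hydrolyzed at 1 mM total peptide with 2 mM Ni2+ in 10 mM Tris, pH 8.2, at 37 °C or 45 °C. Cleavage was scored visually in MALDI-TOF spectra at 2, 4, 6 and 8 h.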

[1] = CH3CO-Gly-Ala-Ser-X-His-Z-Lys-Phe-Leu-NH2 library, 37° C.
[2] = CH3CO-Gly-Ala-Ser-X-His-Z-Lys-Phe-Leu-NH2 library, 45° C.
[3] = CH3CO-Gly-Ala-Thr-X-His-Z-Lys-Phe-Leu-NH2 library, 45° C.
[4] = CH3CO-Gly-Ala-Thr-X-His-Z-Lys-Phe-Leu-NH2 library, 37° C.

Substance	hydrolysis score from MALDI-TOF screening [1]	hydrolysis score from MALDI-TOF screening [2]	hydrolysis score from MALDI-TOF screening [3]	hydrolysis score from MALDI-TOF screening [4]
Ac-GASAHFKFL-NH2 [SAHF]	0 (a score of 0 if no trace of the product of hydrolysis was seen after 8 hours of incubation)	3 (a score of 3 for detection at 8 hours)	–	–
Ac-GATPHPKFL-NH2 [TPHP]	–	–	0 (a score of 0 if no trace of the product of hydrolysis was seen after 8 hours of incubation)	–
Ac-GATKHEKFL-NH2 [TKHE]	–	–	0 (a score of 0 if no trace of the product of hydrolysis was seen after 8 hours of incubation)	0 (a score of 0 if no trace of the product of hydrolysis was seen after 8 hours of incubation)
Ac-GASSHHKFL-NH2 [SSHH]	0 (a score of 0 if no trace of the product of hydrolysis was seen after 8 hours of incubation)	3 (a score of 3 for detection at 8 hours)	–	–
Ac-GASFHTKFL-NH2 [SFHT]	0 (a score of 0 if no trace of the product of hydrolysis was seen after 8 hours of incubation)	0 (a score of 0 if no trace of the product of hydrolysis was seen after 8 hours of incubation)	–	–
Ac-GASKHNKFL-NH2 [SKHN]	0 (a score of 0 if no trace of the product of hydrolysis was seen after 8 hours of incubation)	0 (a score of 0 if no trace of the product of hydrolysis was seen after 8 hours of incubation)	–	–
Ac-GASGHFKFL-NH2 [SGHF]	0 (a score of 0 if no trace of the product of hydrolysis was seen after 8 hours of incubation)	0 (a score of 0 if no trace of the product of hydrolysis was seen after 8 hours of incubation)	–	–
Ac-GASVHPKFL-NH2 [SVHP]	0 (a score of 0 if no trace of the product of hydrolysis was seen after 8 hours of incubation)	0 (a score of 0 if no trace of the product of hydrolysis was seen after 8 hours of incubation)	–	–
Ac-GATKHFKFL-NH2 [TKHF]	–	–	6 (a score of 6 for detection at 4 hours)	3 (a score of 3 for detection at 8 hours)
Ac-GASFHYKFL-NH2 [SFHY]	3 (a score of 3 for detection at 8 hours)	6 (a score of 6 for detection at 4 hours)	–	–
Ac-GATMHTKFL-NH2 [TMHT]	–	–	0 (a score of 0 if no trace of the product of hydrolysis was seen after 8 hours of incubation)	0 (a score of 0 if no trace of the product of hydrolysis was seen after 8 hours of incubation)
Ac-GASSHYKFL-NH2 [SSHY]	3 (a score of 3 for detection at 8 hours)	3 (a score of 3 for detection at 8 hours)	–	–
Ac-GATHHMKFL-NH2 [THHM]	–	–	4 (a score of 4 for detection at 6 hours)	0 (a score of 0 if no trace of the product of hydrolysis was seen after 8 hours of incubation)
Ac-GATTHTKFL-NH2 [TTHT]	–	–	0 (a score of 0 if no trace of the product of hydrolysis was seen after 8 hours of incubation)	0 (a score of 0 if no trace of the product of hydrolysis was seen after 8 hours of incubation)
Ac-GASQHDKFL-NH2 [SQHD]	0 (a score of 0 if no trace of the product of hydrolysis was seen after 8 hours of incubation)	0 (a score of 0 if no trace of the product of hydrolysis was seen after 8 hours of incubation)	–	–
Ac-GASTHLKFL-NH2 [STHL]	4 (a score of 4 for detection at 6 hours)	6 (a score of 6 for detection at 4 hours)	–	–
Ac-GATGHLKFL-NH2 [TGHL]	–	–	0 (a score of 0 if no trace of the product of hydrolysis was seen after 8 hours of incubation)	0 (a score of 0 if no trace of the product of hydrolysis was seen after 8 hours of incubation)
Ac-GATVHMKFL-NH2 [TVHM]	–	–	0 (a score of 0 if no trace of the product of hydrolysis was seen after 8 hours of incubation)	0 (a score of 0 if no trace of the product of hydrolysis was seen after 8 hours of incubation)
Ac-GATIHNKFL-NH2 [TIHN]	–	–	0 (a score of 0 if no trace of the product of hydrolysis was seen after 8 hours of incubation)	0 (a score of 0 if no trace of the product of hydrolysis was seen after 8 hours of incubation)
Ac-GATHHKKFL-NH2 [THHK]	–	–	12 (a score of 12, if it was seen to be partially hydrolysed at 2 hours)	6 (a score of 6 for detection at 4 hours)

Substance	hydrolysis score from MALDI-TOF screening [1]	hydrolysis score from MALDI-TOF screening [2]	hydrolysis score from MALDI-TOF screening [3]	hydrolysis score from MALDI-TOF screening [4]
Ac-GASFHEKFL-NH2 [SFHE]	0 (a score of 0 if no trace of the product of hydrolysis was seen after 8 hours of incubation)	3 (a score of 3 for detection at 8 hours)	–	–
Ac-GASPHFKFL-NH2 [SPHF]	0 (a score of 0 if no trace of the product of hydrolysis was seen after 8 hours of incubation)	0 (a score of 0 if no trace of the product of hydrolysis was seen after 8 hours of incubation)	–	–
Ac-GASVHLKFL-NH2 [SVHL]	3 (a score of 3 for detection at 8 hours)	3 (a score of 3 for detection at 8 hours)	–	–
Ac-GATHHSKFL-NH2 [THHS]	–	–	4 (a score of 4 for detection at 6 hours)	0 (a score of 0 if no trace of the product of hydrolysis was seen after 8 hours of incubation)
Ac-GATFHPKFL-NH2 [TFHP]	–	–	0 (a score of 0 if no trace of the product of hydrolysis was seen after 8 hours of incubation)	0 (a score of 0 if no trace of the product of hydrolysis was seen after 8 hours of incubation)
Ac-GATHHIKFL-NH2 [THHI]	–	–	12 (a score of 12, if it was seen to be partially hydrolysed at 2 hours)	3 (a score of 3 for detection at 8 hours)
Ac-GATGHSKFL-NH2 [TGHS]	–	–	0 (a score of 0 if no trace of the product of hydrolysis was seen after 8 hours of incubation)	0 (a score of 0 if no trace of the product of hydrolysis was seen after 8 hours of incubation)
Ac-GATVHFKFL-NH2 [TVHF]	–	–	0 (a score of 0 if no trace of the product of hydrolysis was seen after 8 hours of incubation)	0 (a score of 0 if no trace of the product of hydrolysis was seen after 8 hours of incubation)
Ac-GASRHEKFL-NH2 [SRHE]	0 (a score of 0 if no trace of the product of hydrolysis was seen after 8 hours of incubation)	3 (a score of 3 for detection at 8 hours)	–	–
Ac-GATWHTKFL-NH2 [TWHT]	–	–	0 (a score of 0 if no trace of the product of hydrolysis was seen after 8 hours of incubation)	0 (a score of 0 if no trace of the product of hydrolysis was seen after 8 hours of incubation)
Ac-GASGHGKFL-NH2 [SGHG]	0 (a score of 0 if no trace of the product of hydrolysis was seen after 8 hours of incubation)	0 (a score of 0 if no trace of the product of hydrolysis was seen after 8 hours of incubation)	–	–
Ac-GASGHIKFL-NH2 [SGHI]	0 (a score of 0 if no trace of the product of hydrolysis was seen after 8 hours of incubation)	3 (a score of 3 for detection at 8 hours)	–	–
Ac-GATQHAKFL-NH2 [TQHA]	–	–	0 (a score of 0 if no trace of the product of hydrolysis was seen after 8 hours of incubation)	0 (a score of 0 if no trace of the product of hydrolysis was seen after 8 hours of incubation)
Ac-GASKHFKFL-NH2 [SKHF]	4 (a score of 4 for detection at 6 hours)	4 (a score of 4 for detection at 6 hours)	–	–
Ac-GASIHWKFL-NH2 [SIHW]	3 (a score of 3 for detection at 8 hours)	3 (a score of 3 for detection at 8 hours)	–	–
Ac-GASHHSKFL-NH2 [SHHS]	0 (a score of 0 if no trace of the product of hydrolysis was seen after 8 hours of incubation)	0 (a score of 0 if no trace of the product of hydrolysis was seen after 8 hours of incubation)	–	–
Ac-GATNHAKFL-NH2 [TNHA]	–	–	0 (a score of 0 if no trace of the product of hydrolysis was seen after 8 hours of incubation)	0 (a score of 0 if no trace of the product of hydrolysis was seen after 8 hours of incubation)
Ac-GATVHWKFL-NH2 [TVHW]	–	–	3 (a score of 3 for detection at 8 hours)	0 (a score of 0 if no trace of the product of hydrolysis was seen after 8 hours of incubation)
Ac-GASRHYKFL-NH2 [SRHY]	4 (a score of 4 for detection at 6 hours)	6 (a score of 6 for detection at 4 hours)	–	–
Ac-GATIHFKFL-NH2 [TIHF]	–	–	0 (a score of 0 if no trace of the product of hydrolysis was seen after 8 hours of incubation)	0 (a score of 0 if no trace of the product of hydrolysis was seen after 8 hours of incubation)
